The results in this text go back to patent US20050124620A1, “Pharmaceutical compounds” (priority 2002, published 2005).

pIC50: −log10 of the molar value.

For the first experiment, the target named is α p38 (Homo sapiens, UniProt Q16539). In words: p38 MAP kinase inhibitory activity (33P-ATP / myelin basic protein filter assay). The class given is biochemical. The conditions noted are these: @ 1 μM; read-out: percentage inhibition of the p38 activity. The protocol: Compounds of the invention were tested for p38 MAP kinase inhibitory activity using the following protocol.
α p38, sequence (Q16539 whole entry): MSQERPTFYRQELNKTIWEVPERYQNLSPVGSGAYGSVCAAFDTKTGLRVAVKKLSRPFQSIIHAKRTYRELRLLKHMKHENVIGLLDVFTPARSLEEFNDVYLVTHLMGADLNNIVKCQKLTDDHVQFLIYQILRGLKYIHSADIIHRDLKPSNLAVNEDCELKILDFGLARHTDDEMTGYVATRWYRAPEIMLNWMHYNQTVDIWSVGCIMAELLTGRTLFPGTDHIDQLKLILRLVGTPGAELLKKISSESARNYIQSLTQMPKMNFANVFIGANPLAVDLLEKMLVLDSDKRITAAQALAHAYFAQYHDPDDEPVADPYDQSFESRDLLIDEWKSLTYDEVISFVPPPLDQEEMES
The reaction was allowed to proceed for fifty minutes before being stopped with an excess of ortho-phosphoric acid (30 μl at 2%). γ^33 P-ATP which remained unincorporated into the myelin basic protein was separated from phoshorylated MBP on a Mlipore (RTM) MAPH filter plate. The wells of the MAPH plate were wetted with 0.5% orthophosphoric acid, and then the results of the reaction were filtered with a Millipore vacuum filtration unit through the wells. Following filtration, the residue was washed twice with 200 μl of 0.5% orthophosphoric acid. Once the filters had dried, […] of Microscint 20™ scintillant was added, and then counted on a Packard Topcount™ counter for 30 seconds. The percentage inhibition of the p38 activity was calculated and plotted in order to determine the concentration of the test compound required to inhibit 50% of the p38 activity (IC50).
The term inhibition denotes the share of the control response that was lost under treatment. Take `O=C(Nc1ccc2[nH]cc(CCc3ccncc3)c2c1)c1ccc(N2CCCC2=O)cc1` [Example 26, 5-(4-(2-oxo-pyrrolidin-1-yl)benzamido)-3-(2-(4-pyridyl)ethyl)indole]: the inhibition at 1 µM came out at 28%.

The experiment is the same for the next values; noted with them: @ 3 μM; read-out: percentage inhibition of the p38 activity.
`O=C(Nc1ccc2c(CCc3ccncc3)c[nH]c2c1)c1cc(F)cc(N2CCOCC2)c1` [Example 15B, 6-(3-Fluoro-5-(4-morpholino)benzamido)-3-(2-(4-pyridyl)ethyl)indole]: the inhibition at 3 µM stood at 36%.

The same experiment, now with this note: @ 300 μM; read-out: percentage inhibition of the p38 activity.
For the compound `O=C1c2ccccc2C(=O)N1c1ccc2[nH]cc(CCc3ccncc3)c2c1` [Example 24B, 5-(1-Phthalimido)-3-(2-(4-pyridyl)ethyl)indole], the inhibition at 300 µM stood at 25%.

The experiment is the same for the next values; noted with them: @ 1 mM; read-out: percentage inhibition of the p38 activity.
As to `Nc1ccc2[nH]cc(CCc3ccncc3)c2c1` [Example 20A, 5-Amino-3-(2-(4-pyridyl)ethyl)indole], the inhibition at 1000 µM was 23%.

The experiment is the same for the next values; noted with them: MKK6-activated α p38, MBP substrate, 50 min reaction.
By pIC50 is commonly meant the negative decadic logarithm of the IC50, by convention in mol/L. A high value points to a small IC50. Compound “3-(2-(4-Pyridyl)ethyl-7-azaindole [Example 12]” had a pIC50 of 3.75.

As to `c1ccc2c(CCc3ccncc3)c[nH]c2c1` [Example 1, 3-(2-(4-Pyridyl)ethyl)indole], the negative-log IC50 (pIC50) was 4.48.

The compound `Cn1cc(CCc2ccncc2)c2ccccc21` [Example 2, 1-Methyl-3-(2-(4-pyridyl)ethyl)indole] gave a pIC50 of 3.62.

As to `c1ccc(CCc2c[nH]c3ccccc23)nc1` [Example 3, 3-(2-(2-Pyridyl)ethyl)indole], the pIC50 is 3.09.

`Cc1ccc2[nH]cc(CCc3ccncc3)c2c1` [Example 4, 5-Methyl-3-(2-(4-pridyl)ethyl)indole] had a negative-log IC50 (pIC50) of 3.60.

Compound `Clc1ccc2[nH]cc(CCc3ccncc3)c2c1` [Example 5, 5-Chloro-3-(2-(4-pyridyl)ethyl)indole] showed a negative-log IC50 (pIC50) of 3.91. This pIC50 lies 0.31 log units higher than the previous one.

For `O=[N+]([O-])c1ccc2[nH]cc(CCc3ccncc3)c2c1` [Example 6, 5-Nitro-3-(2-(4-pyridyl)ethyl)indole], the pIC50 was 3.52. Against the preceding compound, the pIC50 is 0.39 log units lower.

Turning to `CC(=O)Nc1ccc2[nH]cc(CCc3ccncc3)c2c1` [Example 7, 5-Acetamido-3-(2-(4-pyridyl)ethyl)indole], the pIC50 was 3.19.

As for `Cc1[nH]c2ccccc2c1CCc1ccncc1` [Example 8, 2-Methyl-3-(2-(4-pyridyl)ethyl)indole], the pIC50 was 3.57.

Consider `Cc1cccc2[nH]cc(CCc3ccncc3)c12` [Example 9, 4-Methyl-3-(2-(4-pyridyl)ethyl)indole], for which the negative logarithm of the IC50 (pIC50) is 3.95. Compared with the last compound, the pIC50 is 0.38 log units higher.

In turn, `Cc1cccc2c(CCc3ccncc3)c[nH]c12` [Example 10, 7-Methyl-3-(2-(4-pyridyl)ethyl)indole] had a pIC50 of 4.46.

The compound `Fc1cccc2[nH]cc(CCc3ccncc3)c12` [Example 11, 4-Fluoro-3-(2-(4-pyridyl)ethyl)indole] had a pIC50 of 4.35.

As for `O=C(Nc1ccc2[nH]cc(CCc3ccncc3)c2c1)c1ccccc1` [Example 13B, 5-Benzamido-3-(2-(pyrid-4-yl)ethyl)indole], the negative logarithm of the IC50 (pIC50) was 4.40.

`O=C(Nc1ccc2[nH]cc(CCc3ccncc3)c2c1)c1cccc(OC(F)(F)F)c1` [Example 16B, 5-(3-Trifluoromethoxybenzamido)-3-(2-(4-pyridy)ethyl)indole]: the pIC50 was 5.70.

Take `O=C(Nc1ccc2[nH]cc(CCc3ccncc3)c2c1)c1cccc(C(F)(F)F)c1` [Example 17B]: the pIC50 is 5.40.

In turn, `O=C(Nc1ccc2c(ccn2CCc2ccncc2)c1)c1cc(F)cc(N2CCOCC2)c1` [Example 18B, 5-(3-Fluoro-5-(4-morpholino)benzamido)-1-(2-(4-pyridyl)ethyl)indole] showed a pIC50 of 5.52.

For the compound `c1ccc2c(c1)ccn2CCc1ccncc1` [Example 19, 1-(2-(4-pyridyl)ethyl)indole], the negative-log IC50 (pIC50) was 3.70.

Consider `O=C(Nc1ccccc1)Nc1ccc2[nH]cc(CCc3ccncc3)c2c1` [Example 20B, 5-(Phenylcarbamoylamino)-3-(2-(4-pyridyl)ethyl)indole], for which the negative logarithm of the IC50 (pIC50) was 4.55.

In turn, `Clc1nccc(CCc2c[nH]c3ccccc23)n1` [Example 22, 3-(2-(2-Chloro-4-pyrimidinyl)ethyl)indole] showed a pIC50 of 3.92.

As for `O=C(Nc1ccc2[nH]cc(CCc3ccncc3)c2c1)c1ccnc(N2CCOCC2)c1` [Example 23B, 5-(2-(4-Morpholino)isonicotinamido)-3-(2-(4-pyridyl)ethyl)indole], the negative logarithm of the IC50 (pIC50) was 5.89.

`Nc1ccc2ccn(CCc3ccncc3)c2c1` [Example 25A, 6-Amino-1-(2-(4-pyridyl)ethyl)indole] showed a pIC50 of 3.32. This pIC50 is 2.57 log units lower than that of the compound before.

Compound `OCCNc1nccc(CCc2c[nH]c3ccccc23)n1` [Example 27] showed a pIC50 of 4.42.

The compound `CC(C)(CO)Nc1nccc(CCc2c[nH]c3ccccc23)n1` [Example 28, 3-(2-(2-(3-Hydroxy-2-methyl-prop-2-ylamino)-4-pyrimidinyl)ethyl)indole] had a negative logarithm of the IC50 (pIC50) of 5.82. Compared with the last compound, the pIC50 is 1.40 log units higher.

`C[C@H](Nc1nccc(CCc2c[nH]c3ccccc23)n1)c1ccccc1` [Example 29, 3-(2-(2-((S)-(−)-α-methylbenzylamino)-4-pyrimidinyl)ethyl)indole] had a pIC50 of 5.52.

Compound `C[C@@H](Nc1nccc(CCc2c[nH]c3ccccc23)n1)c1ccccc1` [Example 30, 3-(2-(2-((R)-(+)-α-methylbenzylamino)-4-pyrimidinyl)ethyl)idole] gave a negative logarithm of the IC50 (pIC50) of 4.82.

Regarding `c1ccc2c(CCc3ccncn3)c[nH]c2c1` [Example 31, 3-(2-(4-Pyrimidinyl)ethyl)indole], the pIC50 is 3.15. Compared with the last compound, the pIC50 is 1.67 log units lower.

Still in this experiment, the particulars now being: MKK6-activated α p38, MBP substrate; unit stated in cell.
The compound `O=C(Nc1ccc2[nH]cc(CCc3ccncc3)c2c1)c1cc(F)cc(N2CCOCC2)c1` [Example 14B, 5-(3-Fluoro-5-(4-morpholino)benzamido)-3-(2-(4-pyridyl)ethyl)indole] showed a pIC50 of 6.30.

`CC(C)(C)c1cc(NC(=O)Nc2ccc3[nH]cc(CCc4ccncc4)c3c2)n(-c2ccccc2)n1` [Example 32, 5-(3-tert-Butyl-1-phenylpyrazol-5-ylcarbamoylamino)-3-(2-(4-pyridyl)ethyl)indole] showed a pIC50 of 6.84.

Consider `Cc1ccc(S(=O)(=O)n2cc(CCc3cccnc3)c3ccccc32)cc1` [Example 34, 1-[(4-Methylphenyl)sulphonyl]-3-(2-(3-pridyl)ethyl)indole], for which the negative-log IC50 (pIC50) is under 3.00.

The next experiment concerns THP-1 cells. The experiment can be described thus: Inhibition of LPS-induced TNF-α production in THP-1 cells, in vitro assay. Particulars: Homo sapiens; PMA-treated THP-1 cells, 1 μg/ml LPS, 6 h, TNF-α by ELISA. The class given is cell-based. The protocol:
The ability of the compounds of this invention to inhibit the TNF-α release was determined using a rninor modification of the methods described in Rawlins P., et al., “Inhibition of endotoxin-induced TNF-α production in macrophages by 5Z-7-oxo-zeaenol and other fungal resorcyclic acid lactones,” International J. of Immunopharmacology, 21, 799, (1999).
THP-1 cells, human monocytic leukaemic cell line, ECACC) were maintained in culture medium [RPMI 1640 (Invitrogen) and 2 mM L-Glutamine supplemented with 10% foetal bovine serum (Invitrogen)] at approximately 37° C. in humidified 5% CO2 in stationary culture. TBP-1 cells were suspended in culture medium containing 50 ng/ml PMA (SIGMA), seeded into a 96-well tissue culture plate (IWAKI) at 1×10^5 cells/well (100 μl/well) and incubated as described above for approximately 48 h. The medium was then aspirated, the wells washed twice in Phosphate Buffered Saline and 1 μg/ml LPS (SIGMA) in culture medium was added (200 μl/well).
Test compounds were reconstituted in DMSO (SIGMA) and then diluted with the culture medium such that the final DMSO concentration was 0.1%. […] Culture supernatants were collected and the amount of human TNF-α present was determined by ELISA (R&D Systems) performed according to the manufacturer's instructions. […]
(An ELISA detects its analyte on a solid surface through an enzyme-linked reagent.)
The compound `O=C(Nc1ccc2[nH]cc(CCc3ccncc3)c2c1)c1cc(F)cc(N2CCOCC2)c1` [Example 14B, 5-(3-Fluoro-5-(4-morpholino)benzamido)-3-(2-(4-pyridyl)ethyl)indole] had a pIC50 of 6.28.
